Source: patent publication US20220259193A1, “KCNT1 INHIBITORS AND METHODS OF USE” (Praxis Precision Medicines, Inc., priority 2019, published 2022)

Target: T1, KCNT1 (KNa1.1, Slack) (Homo sapiens, UniProt Q5JUK3)
T1 construct: expressed in transfected cells; host or cells: HEK-TREX (tetracycline-inducible HEK cell line)
T1 sequence (Q5JUK3 1-1230): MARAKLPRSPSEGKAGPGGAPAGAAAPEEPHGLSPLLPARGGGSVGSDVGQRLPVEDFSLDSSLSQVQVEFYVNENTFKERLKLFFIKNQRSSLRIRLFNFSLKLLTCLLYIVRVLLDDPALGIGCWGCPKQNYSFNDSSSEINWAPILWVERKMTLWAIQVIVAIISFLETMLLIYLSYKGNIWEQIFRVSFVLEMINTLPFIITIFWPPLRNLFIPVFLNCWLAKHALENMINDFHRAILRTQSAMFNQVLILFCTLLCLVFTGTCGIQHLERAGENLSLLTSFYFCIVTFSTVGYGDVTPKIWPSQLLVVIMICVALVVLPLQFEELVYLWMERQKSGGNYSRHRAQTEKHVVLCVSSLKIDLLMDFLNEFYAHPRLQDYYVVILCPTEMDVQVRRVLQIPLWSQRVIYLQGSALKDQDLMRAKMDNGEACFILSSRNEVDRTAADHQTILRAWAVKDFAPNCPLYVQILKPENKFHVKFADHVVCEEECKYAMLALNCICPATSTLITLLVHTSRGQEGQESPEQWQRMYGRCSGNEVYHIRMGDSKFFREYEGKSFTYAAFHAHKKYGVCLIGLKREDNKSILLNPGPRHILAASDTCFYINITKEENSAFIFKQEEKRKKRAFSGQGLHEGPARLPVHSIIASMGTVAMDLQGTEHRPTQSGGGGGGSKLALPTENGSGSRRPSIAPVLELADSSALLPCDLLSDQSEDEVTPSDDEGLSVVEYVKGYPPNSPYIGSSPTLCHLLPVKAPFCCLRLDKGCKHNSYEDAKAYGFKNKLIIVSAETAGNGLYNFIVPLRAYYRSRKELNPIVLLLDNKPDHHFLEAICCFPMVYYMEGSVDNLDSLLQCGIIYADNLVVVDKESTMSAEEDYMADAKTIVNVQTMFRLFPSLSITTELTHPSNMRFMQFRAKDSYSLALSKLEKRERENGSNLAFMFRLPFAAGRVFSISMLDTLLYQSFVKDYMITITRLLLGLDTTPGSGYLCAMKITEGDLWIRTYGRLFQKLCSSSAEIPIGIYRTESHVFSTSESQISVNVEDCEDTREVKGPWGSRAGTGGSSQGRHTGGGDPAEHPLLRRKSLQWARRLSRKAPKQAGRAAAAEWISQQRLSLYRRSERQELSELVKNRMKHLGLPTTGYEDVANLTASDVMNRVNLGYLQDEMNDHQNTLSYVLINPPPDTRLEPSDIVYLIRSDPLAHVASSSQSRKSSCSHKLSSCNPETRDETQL
Assay: KCNT1 patch clamp assay (SyncroPatch 384PE automated patch clamp)
Assay type: cell-based
Settings: tetracycline inducible HEK-TREX cell line; perforated patch; step from −80 mV to 0 mV; room temperature; read-out: KCNT1-WT IC50
Summary of the method: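 Tetracycline-inducible HEK-TREX cells; perforated-patch (10 μM escin) population recordings at room temperature, holding −80 mV with 100 ms step to 0 mV.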

Row | SMILES | IC50 [nM]
1 | C[C@H](NC(=O)c1ccnn1C1CCCC1)c1nc(-c2ccnc(C3CC3)c2)no1 [Compound 270] | ≤ 1000
2 | CC(=O)NC[C@@H](NC(=O)c1cc(C(F)(F)F)nn1C)c1nc(-c2cccc(F)c2)no1 [Compound 137] | 1000 to 20000
3 | CC(=O)NC[C@H](NC(=O)c1cc(C(F)(F)F)nn1C)c1nc(-c2cccc(F)c2)no1 [Compound 134] | ≥ 20000
4 | CC(NC(=O)c1cc(C(F)(F)F)nn1C)c1nc(-c2cccc(S(C)(=O)=O)c2)no1 (stereo not drawn) [Compound 179, 1-methyl-N-(1-(3-(3-(methylsulfonyl)phenyl)-1,2,4-oxadiazol-5-yl)ethyl)-3-(trifluoromethyl)-1H-pyrazole-5-carboxamide] | 1000 to 20000
5 | CC[C@H](NC(=O)c1ccnn1C1CCCC1)c1nc(-c2ccnc(C)c2)no1 [Compound 216, (S)-1-cyclopentyl-N-(1-(3-(2-methylpyridin-4-yl)-1,2,4-oxadiazol-5-yl)propyl)-1H-pyrazole-5-carboxamide] | ≤ 1000
6 | CC[C@H](NC(=O)c1ccnn1-c1ccccc1)c1nc(-c2ccnc(C)c2)no1 [Compound 215, (S)—N-(1-(3-(2-methylpyridin-4-yl)-1,2,4-oxadiazol-5-yl)propyl)-1-phenyl-1H-pyrazole-5-carboxamide] | 1000 to 20000
7 | CN(C)C(=O)C[C@@H](NC(=O)c1cc(C(F)(F)F)nn1C)c1nc(-c2cccc(F)c2)no1 (single isomer, unassigned) [Compound 135] | 1000 to 20000
8 | Cn1nc(C2CC2)cc1C(=O)NC(C)(C)c1nc(-c2cccc(F)c2)no1 [Compound 50] | 1000 to 20000
9 | C[C@H](NC(=O)c1cc(C(F)(F)F)nn1CC(=O)N1CCCC1)c1nc(-c2ccnc(C(F)(F)F)c2)no1 [Compound 249, (S)-1-(2-oxo-2-(pyrrolidin-1-yl)ethyl)-3-(trifluoromethyl)-N-(1-(3-(2-(trifluoromethyl)pyridin-4-yl)-1,2,4-oxadiazol-5-yl)ethyl)-1H-pyrazole-5-carboxamide] | ≤ 1000
10 | CC[C@H](NC(=O)c1cc(C)n(-c2cccnc2)n1)c1nc(-c2ccnc(C)c2)no1 [Compound 299, (S)-5-methyl-N-(1-(3-(2-methylpyridin-4-yl)-1,2,4-oxadiazol-5-yl)propyl)-1-(pyridin-3-yl)-1H-pyrazole-3-carboxamide] | ≥ 20000
11 | CC[C@H](NC(=O)c1ccnn1Cc1ccccc1)c1nc(-c2ccnc(C)c2)no1 [Compound 219, (S)-1-benzyl-N-(1-(3-(2-methylpyridin-4-yl)-1,2,4-oxadiazol-5-yl)propyl)-1H-pyrazole-5-carboxamide] | ≤ 1000
12 | Cn1nc(C(F)(F)F)cc1C(=O)NC(CC#N)c1nc(-c2cccc(F)c2)no1 (stereo not drawn) [Compound 140] | 1000 to 20000
13 | CN(Cc1nc(-c2ccnc(C3CC3)c2)no1)C(=O)c1cc(C(F)(F)F)nn1C [Compound 302, N-[[3-(2-cyclopropyl-4-pyridyl)-1,2,4-oxadiazol-5-yl]methyl]-N,2-dimethyl-5-(trifluoromethyl)pyrazole-3-carboxamide] | ≤ 1000
14 | CO[C@H](C)[C@H](NC(=O)c1cc(C(F)(F)F)nn1C)c1nc(-c2cccc(F)c2)no1 [Compound 131] | 1000 to 20000
15 | Cn1nc(C(F)(F)F)cc1C(=O)NC1(c2nc(-c3cccc(F)c3)no2)CCOC1 (stereo not drawn) [Compound 149] | ≤ 1000
16 | CO[C@H](C)[C@@H](NC(=O)c1cc(C(F)(F)F)nn1C)c1nc(-c2cccc(F)c2)no1 [Compound 139] | ≤ 1000
17 | C[C@H](NC(=O)c1cn(C)nc1C1CCC1)c1nc(-c2cccc(F)c2)no1 [Compound 155] | 1000 to 20000
18 | CC(NC(=O)c1cc(C2CC2)nn1C)c1nc(-c2c(F)cccc2F)no1 (stereo not drawn) [Compound 7] | ≥ 20000
19 | C[C@H](NC(=O)c1cc(C(F)(F)F)nn1Cc1ccccc1)c1nc(-c2ccnc(C(F)(F)F)c2)no1 [Compound 241, (S)-1-benzyl-3-(trifluoromethyl)-N-(1-(3-(2-(trifluoromethyl)pyridin-4-yl)-1,2,4-oxadiazol-5-yl)ethyl)-1H-pyrazole-5-carboxamide] | ≤ 1000

Further lines, results first:

Row | IC50 [nM] | SMILES
20 | 1000 to 20000 | C[C@@H](NC(=O)OC(C)(C)C)c1nc(-c2ccnc(C(F)(F)F)c2)no1 [Compound 296, tert-butyl (R)-(1-(3-(2-(trifluoromethyl)pyridin-4-yl)-1,2,4-oxadiazol-5-yl)ethyl)carbamate]
21 | 1000 to 20000 | Cc1nn(C(C)C)cc1C(=O)N[C@@H](C)c1nc(-c2ccc(F)c(Cl)c2)no1 [Compound 88]
22 | ≤ 1000 | Cc1nn(C(C)C)cc1C(=O)N[C@@H](C)c1nc(-c2cc(F)cc(F)c2)no1 [Compound 92]
23 | ≤ 1000 | CC(C)COC(=O)N[C@@H](C)c1nc(-c2ccnc(C3CC3)c2)no1 [Compound 275]
24 | 1000 to 20000 | C[C@H](NC(=O)OC(C)(C)C)c1nc(-c2ccnc(OCC(F)F)c2)no1 [Compound 294, tert-butyl (S)-(1-(3-(2-(2,2-difluoroethoxy)pyridin-4-yl)-1,2,4-oxadiazol-5-yl)ethyl)carbamate]
25 | ≤ 1000 | CC(C)Oc1cc(-c2noc([C@H](C)NC(=O)c3cc(C(F)(F)F)nn3CC(=O)N(C)C)n2)ccn1 [Compound 224, (S)-1-(2-(dimethylamino)-2-oxoethyl)-N-(1-(3-(2-isopropoxypyridin-4-yl)-1,2,4-oxadiazol-5-yl)ethyl)-3-(trifluoromethyl)-1H-pyrazole-5-carboxamide]
26 | ≤ 1000 | CC(NC(=O)c1cc(C(F)(F)F)nn1C)c1nc(-c2ccc(F)c(F)c2)no1 (stereo not drawn) [Compound 67]
27 | 1000 to 20000 | COc1cccc(-c2noc([C@H](C)NC(=O)OC(C)(C)C)n2)c1 [Compound 283, tert-butyl (S)-(1-(3-(3-methoxyphenyl)-1,2,4-oxadiazol-5-yl)ethyl)carbamate]
28 | ≤ 1000 | Cc1nn(C(C)C)cc1C(=O)NC(C)c1nc(-c2ccc(Cl)cc2)no1 (stereo not drawn) [Compound 97]
29 | ≥ 20000 | COCc1nn(C)cc1C(=O)N[C@@H](C)c1nc(-c2cccc(F)c2)no1 [Compound 156]
30 | 1000 to 20000 | Cc1nn(C)c(C(=O)N[C@@H](C)c2nc(-c3ccnc(C(F)(F)F)c3)no2)c1C [Compound 244]
31 | 1000 to 20000 | C[C@H](NC(=O)c1cc(C(F)(F)F)nn1C)c1nc(-c2cccc(C#N)c2)no1 [Compound 104]
32 | ≤ 1000 | COCCn1nc(C(F)(F)F)cc1C(=O)N[C@@H](C)c1nc(-c2ccnc(C(F)(F)F)c2)no1 [Compound 239, (S)-1-(2-methoxyethyl)-3-(trifluoromethyl)-N-(1-(3-(2-(trifluoromethyl)pyridin-4-yl)-1,2,4-oxadiazol-5-yl)ethyl)-1H-pyrazole-5-carboxamide]
33 | 1000 to 20000 | COC1(c2cc(-c3noc([C@H](C)NC(=O)c4cc(C(F)(F)F)nn4C)n3)ccn2)CC1 [Compound 263, (S)—N-(1-(3-(2-(1-methoxycyclopropyl)pyridin-4-yl)-1,2,4-oxadiazol-5-yl)ethyl)-1-methyl-3-(trifluoromethyl)-1H-pyrazole-5-carboxamide]
34 | ≤ 1000 | CC[C@H](NC(=O)c1cc(C(F)(F)F)nn1C(F)F)c1nc(-c2ccnc(C)c2)no1 [Compound 221, (S)-1-(difluoromethyl)-N-(1-(3-(2-methylpyridin-4-yl)-1,2,4-oxadiazol-5-yl)propyl)-3-(trifluoromethyl)-1H-pyrazole-5-carboxamide]
35 | ≤ 1000 | COC[C@H](NC(=O)c1cc(C(F)(F)F)nn1C)c1nc(-c2cccc(C)c2)no1 (single isomer, unassigned) [Compound 81]
36 | 1000 to 20000 | COC1(c2cc(-c3noc([C@H](C)NC(=O)OC(C)(C)C)n3)ccn2)CC1 [Compound 262, tert-butyl (S)-(1-(3-(2-(1-methoxycyclopropyl)pyridin-4-yl)-1,2,4-oxadiazol-5-yl)ethyl)carbamate]
37 | ≤ 1000 | C[C@H](NC(=O)c1cc(C(F)F)nn1C)c1nc(-c2ccnc(C3CCCC3)c2)no1 [Compound 308, (S)—N-(1-(3-(2-cyclopentylpyridin-4-yl)-1,2,4-oxadiazol-5-yl)ethyl)-3-(difluoromethyl)-1-methyl-1H-pyrazole-5-carboxamide]
38 | 1000 to 20000 | Cc1nn(C(C)C)cc1C(=O)NC(C)c1nc(-c2ccc(OC(F)(F)F)cc2)no1 (stereo not drawn) [Compound 99]
39 | ≤ 1000 | CCn1cc(C(=O)N[C@@H](C)c2nc(-c3cccc(F)c3)no2)c(C(F)(F)F)n1 [Compound 165]
